# In patent US5936097A, “4,9-ethano-benzo(F)isoindole derivatives as farnesyl transferase inhibitors” (Rhone-Poulenc Rorer, S.A., priority 1995, dated 1999):
# Where a name gives a salt, the structure may show the parent alone.
# Biological target: T1, human farnesyl transferase (Homo sapiens, UniProt P49354+P49356)
# T1 construct: human farnesyl transferase purified from THP1 cell cultures; endogenous in cells; host or cells: THP1 cell cultures (enzyme purified from the cells)
# Assay: inhibition of farnesyl transferase ((3H) farnesyl transfer from (3H) FPP to p21 H-ras)
# Type: biochemical
# Conditions: not given
# How it was run: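 Radiometric transfer of [3H]farnesyl from 4.5 pmol [3H]FPP to 200 pmol p21 H-ras by ~5 ng human enzyme purified from THP1 cells, in 50 mM Tris-HCl, 5 mM MgCl2, 5 mM DTT, 0.2% octyl glucoside, 20 min at 37 °C. Protein precipitated with SDS/TCA in methanol, filter-bound counts measured; IC50 from 9 concentrations, triplicate.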
row,SMILES,IC50
1,"CCOc1ccccc1CC(=O)N1C[C@H]2[C@@]3(c4ccccc4)CC[C@H](c4ccccc43)[C@@]2(C(=O)O)C1 (relative stereo) [Example 74, (3aRS,4SR,9SR,9aRS)-4,9-ethano-2-(2-ethoxyphenyl)acetyl-9-phenyl-2,3,3a,4,9,9a-hexahydro-1H-benzo[f]isoindole-3a-carboxylic acid]",190 nM
2,"COc1ccccc1OC(=O)N1C[C@H]2[C@@]3(c4ccccc4)CC[C@H](c4ccccc43)[C@@]2(C(=O)O)C1 (relative stereo) [Example 27, (3aRS, 4SR, 9SR, 9aRS)-4,9-ethano-2-(2-methoxyphenyl)oxycarbonyl-9-phenyl-1,2,3,3a,9,9a-hexahydro-1H-benzo[f]isoindole-3a-carboxylic acid]",5800 nM
3,"CSc1ccccc1CC(=O)N1CC2C3(c4ccccc4)CCC(c4ccccc43)C2(C(=O)O)C1 (single isomer, unassigned) [Example 31]",620 nM
4,"COc1ccccc1CC(=O)N1C[C@H]2[C@@]3(c4ccccc4)CC[C@H](c4ccccc43)[C@@]2(C(=O)O)C1 (relative stereo) [Example 2, (3aRS, 4SR, 9SR, 9aRS)-4,9-ethano-2-(2-methoxyphenyl)acetyl-9-phenyl-2,3,3a,4,9,9a-hexahydro-1H-benzo[f]isoindole-3a-carboxylic acid]",310 nM
5,CSc1ccccc1CC(=O)N1C[C@H]2[C@@]3(c4ccccc4)CC[C@H](c4ccccc43)[C@@]2(C(=O)O)C1 (relative stereo) [Example 30],600 nM
6,"Cc1ccccc1CC(=O)N1C[C@@H]2[C@]3(c4ccccc4)CC[C@@H](c4ccccc43)[C@]2(C(=O)O)C1 (relative stereo) [Example 62, (3aRS,4SR,9SR,9aRS)-4,9-Ethano-2-(2-methylphenyl)acetyl-9-phenyl-2,3,3a,4,9,9a-hexahydro-1H-benzo[f]isoindole-3a-carboxylic acid]",1150 nM
7,"C=C(C(=O)N1C[C@@H]2[C@]3(c4ccccc4)CC[C@@H](c4ccccc43)[C@]2(C(=O)O)C1)c1ccccc1OC (relative stereo) [Example 38, (3aRS,4SR,9SR,9aRS)-4,9-ethano-2-[2-(2-methoxyphenyl)prop-2-en-1-oyl]-9-phenyl-2,3,3a,4,9,9a-hexahydro-1H-benzo[f]isoindole-3a-carboxylic acid]",100 nM

# Same assay, conditions: human farnesyl transferase purified from THP1 cell cultures; p21 H-ras substrate; 20 minutes at 37° C.; 9 concentrations; read-out: in vitro inhibitory activity IC50
row,SMILES,IC50
1,"COc1ccccc1CC(=O)N1C[C@H]2[C@@]3(c4ccccc4)CC[C@H](c4ccccc43)[C@@]2(CC(=O)O)C1 (relative stereo) [Example 19, (3aRS, 4SR, 9SR, 9aRS)-4,9-ethano-2-(2-methoxyphenyl)acetyl-9-phenyl-2,3,3a,4,9,9a-hexahydro-1H-benzo[f]isoindol-3a-acetic acid]",5600 nM
2,"CCOC(=O)[C@]12CN(C(=O)Cc3ccccc3OC)C[C@H]1[C@@]1(c3ccccc3)CC[C@@H]2c2ccccc21 (relative stereo) [Example 10, ethyl ester of (3aRS, 4SR, 9SR, 9aRS)-4,9-ethano-2-(2-methoxyphenyl)acetyl-9-phenyl-2,3,3a,4,9,9a-hexahydro-1H-benzo[f]isoindol-3a-carboxylic acid]",4350 nM
3,"COc1cccc(CC(=O)N2C[C@@H]3[C@]4(c5ccccc5)CC[C@@H](c5ccccc54)[C@]3(C(=O)O)C2)c1OC (relative stereo) [Example 36, (3aRS, 4SR, 9SR, 9aRS)-4,9-ethano-2-(2,3-dimethoxyphenyl)acetyl-9-phenyl-2,3,3a,4,9,9a-hexahydro-1H-benzo[f]isoindole-3a-carboxylic acid]",3700 nM
4,"C/C=C(/C(=O)N1C[C@@H]2[C@]3(c4ccccc4)CC[C@@H](c4ccccc43)[C@]2(C(=O)O)C1)c1ccccc1OC (racemic) [Example 78, (3aRS,4SR,9SR,9aRS)-4,9-ethano-2-[2(E)-(2-methoxyphenyl)-2-butenoyl]-9-phenyl-2,3,3a,4,9,9a-hexahydro-1H-benzo[f]isoindole-3a-carboxylic acid]",650 nM
5,"C=C(C(=O)N1C[C@H]2[C@@]3(c4ccccc4)CC[C@H](c4ccccc43)[C@@]2(C(=O)NCc2ccc(OC)c(OC)c2)C1)c1ccccc1OC [Example 90, (3aS,4R,9R,9aS)-N-(3,4-dimethoxybenzyl)-4,9-ethano-2-[(2-methoxyphenyl)prop-2-en-1-oyl]-9-phenyl-2,3,3a,4,9,9a-hexahydro-1H-benzo[f]isoindole-3a-carboxamide]",970 nM
6,"COc1ccccc1CC(=O)N1C[C@H]2[C@@]3(c4ccccc4)CC[C@H](c4ccccc43)[C@@]2(C(=O)NC(Cc2c[nH]cn2)C(=O)O)C1 (stereo partly drawn) [Example 8, hydrochloride of N-[(3aRS, 4SR, 9SR, 9aRS)-4,9-ethano-2-(2-methoxyphenyl)acetyl-9-phenyl-2,3,3a,4,9,9a-hexahydro-1H-benzo[f]isoindolyl-3a-carbonyl]histidine]",190 nM
7,C=C(C(=O)N1C[C@H]2[C@@]3(c4ccccc4)CC[C@H](c4ccccc43)[C@@]2(C(=O)NCc2ccccc2)C1)c1ccccc1OC [Example 71],500 nM
8,"COc1ccccc1CC(=O)N1CC2C3(c4ccccc4)CCC(c4ccccc43)C2(C(=O)N[C@@H](CCSC)C(=O)O)C1 (stereo partly drawn) [Example 51, N-[(3aRS,4SR,9SR,9aRS)-4,9-ethano-2-(2-methoxy-phenyl)acetyl-9-phenyl-2,3,3a,4,9,9a-hexahydro-1H-benzo[f]isoindol-3a-yl]carbonyl-L-methionine]",150 nM
9,"COc1ccccc1C(C(=O)N1C[C@@H]2[C@]3(c4ccccc4)CC[C@@H](c4ccccc43)[C@]2(C(=O)O)C1)=C(C)C (racemic) [Example 79, (3aRS,4SR,9SR,9aRS)-4,9-ethano-2-[2-(2-methoxyphenyl)-3-methyl-2-butenoyl]-9-phenyl-2,3,3a,4,9,9a-hexahydro-1H-benzo[f]isoindole-3a-carboxylic acid]",5050 nM
10,"COc1ccccc1CC(=O)N1C[C@H]2[C@@]3(c4ccccc4)CC[C@H](c4ccccc43)[C@@]2(CC(=O)NCC(=O)O)C1 (relative stereo) [Example 20, N-[(3aRS, 4SR, 9SR, 9aRS)-4,9-ethano-2-(2-methoxyphenyl)acetyl-9-phenyl-2,3,3a,4,9,9a-hexahydro-1H-benzo[f]isoindol-3a-yl]acetylglycine]",4800 nM
11,"COc1ccccc1CC(=O)N1C[C@H]2[C@@]3(c4ccccc4)CC[C@H](c4ccccc43)[C@@]2(C(=O)N(C)OC)C1 (relative stereo) [Example 68, (3aRS,4SR,9SR,9aRS)-N-methoxy-N-methyl-4,9-ethano-2-(2-methoxy-phenyl)acetyl-9-phenyl-2,3,3a,4,9,9a-hexahydro-1H-benzo[f]isoindole-3a-carboxamide]",2250 nM
12,"O=C(Cc1ccccc1OCc1ccccc1)N1C[C@@H]2[C@]3(c4ccccc4)CC[C@@H](c4ccccc43)[C@]2(C(=O)O)C1 (relative stereo) [Example 64, (3aRS,4SR,9SR,9aRS)-4,9-Ethano-2-(2-benzyloxyphenyl)acetyl-9-phenyl-2,3,3a,4,9,9a-hexahydro-1H-benzo[f]isoindole-3a-carboxylic acid]",750 nM
